Laboratory results reported in PubChem BioAssay (NCI).
Values joined by “and” are separate entries in the source; they are usually repeats but may differ in a detail not shown here. Equal entries are not always repeated.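 Cultured in 96-well plates, cells were exposed to test compound for 48 hours across five concentrations. GI50 = concentration required for 50% inhibition of growth. TGI: total growth inhibition.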

Legend:
Assay in all cases: DTP human tumour cell line panel, 48 h
[1] = tested on: HS 578T breast
[2] = tested on: LOX IMVI melanoma
[3] = tested on: EKVX NSCLC
[4] = tested on: MALME-3M melanoma
[5] = tested on: SW-620 colon
[6] = tested on: ACHN renal
[7] = tested on: SF-539 CNS
[8] = tested on: SNB-19 CNS
[9] = tested on: NCI-H522 lung
[10] = tested on: NCI-H460 lung

`O=C1NC(=O)c2ccccc2/C1=C/c1ccc2c(c1)OCO2` was tested, and the TGI [1] was 47.2 µM, the TGI [2] was 46.4 µM and the TGI [3] was > 100 µM. The TGI [4] was > 100 µM, the TGI [5] was > 100 µM and the TGI [6] was 34.3 µM. For the same molecule, the TGI [7] was 46.7 µM, the TGI [8] was > 100 µM and the TGI [9] was > 100 µM.
With `CC(C(=O)OCc1ccccc1)N(Cc1ccccc1)Cc1ccccc1` (stereo unspecified) the TGI [3] was > 100 µM, the TGI [4] was > 100 µM and the TGI [5] was > 100 µM. For the same molecule, the TGI [10] was > 100 µM, the TGI [6] was > 100 µM and the TGI [7] was > 100 µM. The TGI [8] was > 100 µM and the TGI [9] was > 100 µM.
`C#C[C@]1(O)CC[C@H]2[C@@H]3CCC4=C/C(=N/NC(=O)c5cccc6c(=O)c7ccccc7[nH]c56)CCC4[C@H]3CC[C@@]21C` (stereo partly specified) was tested, and the TGI [1] was > 100 µM, the TGI [2] was > 100 µM and the TGI [3] was > 100 µM. For the same molecule, the TGI [4] was 68.1 µM, the TGI [5] was > 100 µM and the TGI [6] was > 100 µM. For the same molecule, the TGI [7] was > 100 µM, the TGI [8] was > 100 µM and the TGI [9] was 86 µM.
For `O=C(O)CCC(=O)OCN1C(=O)C2C3C=CC(C2C1=O)C1C2C(=O)N(COC(=O)CCC(=O)O)C(=O)C2C31` (stereo unspecified), the TGI [2] was > 63 µM, the TGI [3] was > 100 µM and the TGI [4] was > 100 µM. For the same molecule, the TGI [5] was > 68.4 µM, the TGI [10] was > 54.5 µM and the TGI [6] was > 100 µM. For the same molecule, the TGI [7] was > 100 µM, the TGI [8] was > 100 µM and the TGI [9] was > 85.8 µM.
`COC(=O)[C@H](Cc1c[nH]c2ccccc12)NP(=O)(OCCC#N)OCC1OC(n2cc(C)c(=O)[nH]c2=O)CC1N=[N+]=[N-]` (stereo partly specified) was tested, and the TGI [2] was > 100 µM, the TGI [3] was > 100 µM and the TGI [4] was > 100 µM. For the same molecule, the TGI [5] was > 100 µM, the TGI [10] was > 100 µM and the TGI [6] was > 100 µM. The TGI [8] was > 100 µM and the TGI [9] was > 100 µM.
In the case of `COc1ccc(C2C3=C(N=C4SC(C(C)=O)=C(C)N42)c2ccccc2CC3)cc1` (stereo unspecified), the TGI [1] is reported as > 100 µM, the TGI [2] is reported as > 100 µM and the TGI [5] is reported as > 100 µM. For the same molecule, the TGI [6] was > 100 µM, the TGI [7] was > 100 µM and the TGI [8] was > 100 µM.
With `N#Cc1nc2cc(Cl)ccc2nc1N1CCN(c2ccc([N+](=O)[O-])cc2)CC1` the TGI [1] was > 100 µM, the TGI [3] was > 100 µM and the TGI [5] was > 100 µM. For the same molecule, the TGI [10] was > 100 µM, the TGI [6] was > 100 µM and the TGI [7] was > 100 µM. For the same molecule, the TGI [8] was > 100 µM.
With `COC(C/C(=C/CO[Si](C(C)C)(C(C)C)C(C)C)C(=O)N(COCC[Si](C)(C)C)c1ccccc1I)OC` the TGI [1] was > 100 µM, the TGI [2] was 37.8 µM and the TGI [5] was > 100 µM. For the same molecule, the TGI [10] was > 100 µM, the TGI [6] was > 100 µM and the TGI [8] was > 100 µM.
With `O=c1[nH]c(=O)n(C2CC(O)C(CO)O2)cc1Oc1ccccc1` (stereo unspecified) the TGI [1] was > 100 µM, the TGI [2] was > 100 µM and the TGI [3] was > 100 µM. The TGI [4] was > 100 µM, the TGI [10] was > 100 µM and the TGI [6] was > 100 µM. For the same molecule, the TGI [8] was > 100 µM and the TGI [9] was > 100 µM.
Molecule `CC(C)(C)c1ccc(C(O)CCCN2CCC(C(O)(c3ccccc3)c3ccccc3)CC2)cc1` (stereo unspecified) has a GI50 [2] of 1.5 µM, a TGI [2] of 2.82 µM and a GI50 [3] of 1.37 µM. For the same molecule, the TGI [3] was 2.77 µM, the TGI [4] was 3.03 µM and 23.7 µM and the GI50 [10] was 1.6 µM and 14.6 µM. For the same molecule, the TGI [10] was 2.95 µM and 21.5 µM, the GI50 [6] was 1.67 µM and the TGI [6] was 3.03 µM. For the same molecule, the GI50 [9] was 1.83 µM and 13.6 µM and the TGI [9] was 3.31 µM and 21.2 µM.
For `C1=NCCNCCNCCN=Cc2ccc(cc2)OCc2cccc(n2)COc2ccc1cc2`, the TGI [1] was > 100 µM, the TGI [3] was > 100 µM and the TGI [4] was > 100 µM. For the same molecule, the TGI [5] was > 100 µM, the TGI [10] was > 100 µM and the TGI [6] was > 100 µM. For the same molecule, the TGI [7] was > 100 µM and the TGI [8] was > 100 µM.
With `Cc1cc2[nH]c3c(C#N)c(-c4ccccc4)c(N=Nc4ccc(F)cc4)c(=O)n3c2cc1C` the TGI [2] was > 100 µM, the TGI [3] was > 100 µM and the TGI [5] was > 100 µM. For the same molecule, the TGI [10] was > 100 µM, the TGI [6] was > 100 µM and the TGI [7] was > 100 µM. The TGI [8] was > 100 µM and the TGI [9] was > 100 µM.
`COc1cccc(N=N/C(=N/NC(=O)c2ccc(C)cc2)c2ccc(N(CCC#N)CCC#N)cc2OC)c1` was tested, and the TGI [1] was > 100 µM, the TGI [2] was > 100 µM and the TGI [3] was 37.4 µM. The TGI [4] was > 100 µM, the TGI [5] was > 100 µM and the TGI [10] was > 100 µM. The TGI [6] was > 100 µM, the TGI [8] was > 100 µM and the TGI [9] was > 100 µM.
For `N#CC1(C#N)C(C#N)(C#N)C1(C#N)C(N)=O`, the TGI [1] was > 100 µM, the TGI [2] was > 100 µM and the TGI [3] was > 100 µM. The TGI [4] was > 100 µM, the TGI [5] was > 100 µM and the TGI [10] was > 100 µM. The TGI [6] was > 100 µM, the TGI [8] was > 100 µM and the TGI [9] was > 100 µM.
For `CC(C)(C)OC(=O)NC12C3C4C1C1C2C3C41NC(=O)OC(C)(C)C` (stereo unspecified), the TGI [1] was > 100 µM, the TGI [2] was > 100 µM and the TGI [3] was > 100 µM. The TGI [5] was > 100 µM, the TGI [10] was > 100 µM and the TGI [6] was > 100 µM. For the same molecule, the TGI [7] was 93.9 µM, the TGI [8] was > 100 µM and the TGI [9] was > 100 µM.
`CN(Cc1cnc2nc(N)nc(N)c2n1)c1ccc(C(=O)NC23CC4CC(CC(C4)C2)C3)cc1` gave a TGI [1] of 31.9 µM, a TGI [2] of 53 µM and a TGI [3] of 32.5 µM. For the same molecule, the TGI [4] was 26.3 µM, the TGI [5] was > 100 µM and the TGI [10] was 18.6 µM. It also gave a TGI [6] of 11.5 µM and a TGI [8] of 18.6 µM.
With `CCOC(=O)c1ccc(Nc2nc3ccccc3nc2-c2cccs2)cc1` the TGI [1] was > 100 µM, the TGI [2] was 74.1 µM and the TGI [3] was > 100 µM. The TGI [4] was > 100 µM, the TGI [10] was > 100 µM and the TGI [6] was > 100 µM. The TGI [7] was > 100 µM, the TGI [8] was > 100 µM and the TGI [9] was 80.7 µM.
For `COc1ccccc1OCC(COC(=O)Nc1ccccc1)OC(=O)Nc1ccccc1` (stereo unspecified), the TGI [2] was > 100 µM, the TGI [3] was > 100 µM and the TGI [4] was > 100 µM. The TGI [5] was > 100 µM, the TGI [10] was > 100 µM and the TGI [6] was > 100 µM. For the same molecule, the TGI [7] was 33.4 µM, the TGI [8] was > 100 µM and the TGI [9] was > 100 µM.
In the case of `Cc1nc2cc(F)c(F)cc2[nH]c1=O`, the TGI [1] is reported as > 100 µM, the TGI [2] is reported as > 100 µM and the TGI [3] is reported as > 100 µM. The TGI [4] was > 100 µM, the TGI [5] was > 100 µM and the TGI [10] was > 100 µM. The TGI [6] was > 100 µM, the TGI [7] was > 100 µM and the TGI [8] was > 100 µM.
In the case of `FC(F)(F)c1cc(N(C2c3ccccc3C=Cc3ccccc32)P(Cl)Cl)cc(C(F)(F)F)c1`, the TGI [1] is reported as 79.5 µM, the TGI [2] is reported as 36.1 µM and the TGI [3] is reported as 38.6 µM. For the same molecule, the TGI [4] was 36 µM, the TGI [5] was 82.6 µM and the TGI [6] was 33.9 µM. It also gave a TGI [7] of 66.6 µM, a TGI [8] of 56.8 µM and a TGI [9] of 28.6 µM.
With `O=P1(N2CCOCC2)OCCO1` the TGI [1] was > 100 µM, the TGI [2] was > 100 µM and the TGI [3] was > 100 µM. For the same molecule, the TGI [4] was > 100 µM, the TGI [5] was > 100 µM and the TGI [10] was > 100 µM. The TGI [6] was > 100 µM, the TGI [8] was > 100 µM and the TGI [9] was > 100 µM.
For `CCN1C/C(=C\c2ccc(Cl)cc2)c2nc(N)c(C#N)c(-c3ccc(Cl)cc3)c2C1`, the TGI [1] was > 100 µM, the TGI [2] was > 100 µM and the TGI [3] was > 100 µM. The TGI [4] was > 100 µM, the TGI [5] was > 100 µM and the TGI [10] was > 100 µM. For the same molecule, the TGI [6] was > 100 µM, the TGI [8] was > 100 µM and the TGI [9] was > 100 µM.
